In patent US8853263B2, “Co-therapy for the treatment of epilepsy and related disorders” (Janssen Pharmaceutica NV, priority 2006, dated 2014):

| melting point [°C] | Compound |
| --- | --- |
| 100 to 101 | NS(=O)(=O)NCC1CCc2ccccc2O1 (stereo not shown) [Compound #10, Chroman-2-ylmethylsulfamide] |
| 119 to 121 | NS(=O)(=O)NC[C@H]1COc2cc(Cl)c(Cl)cc2O1 [Compound #29, (2S)-(−)-N-(6,7Dichloro-2,3-dihydro-benzo[1,4]dioxin-2-ylmethyl)-sulfamide] |
| 101 to 103 | NS(=O)(=O)NCCC1COc2ccccc2O1 (stereo not shown) [Compound #16, 2-(2,3-Dihydro-benzo[1,4]dioxin-2-yl)-ethylsulfamide] |
| 76 to 78 | CN(C)S(=O)(=O)NCC1COc2ccccc2O1 (racemic) [Compound #6, N-(2,3-Dihydro-benzo[1,4]dioxin-2-ylmethyl)-N′,N′dimethylsulfamide] |
